Measurements reported in patent US12398138B2, “FGFR inhibitor compound in solid form and preparation method therefor” (CSPC ZHONGQI PHARMACEUTICAL TECHNOLOGY (SHIJIAZHUANG) CO., …, priority 2019, dated 2025).
Like-named read-outs stand apart in the source and are kept apart here.

Experiments:
[1] = Hygroscopicity by dynamic vapor sorption (DVS); type: physicochemical; details: 25° C. and 80% RH
Description: Dynamic Vapor Sorption (DVS)
Test condition: Approximately 10-15 mg of sample was used for DVS detection.
Equilibrating dm/dt: 0.01%/min: (time: 10 min-180 min (maximum))
RH (%) measuring gradient: 10%
Range of RH (%) measuring gradient: 0%-90%-0%
The evaluation criteria was as follows:
SMS DVS Advantage dynamic vapor adsorption instrument
10-15 mg of the crystal form B of the compound of Formula (I) was taken and placed on a DVS sample pan for test.

human FGFR1 = molecular target: T1, human FGFR1 (Homo sapiens, UniProt P11362); test: 33P isotope-labeled kinase activity assay, wild type FGFR1; type: biochemical; details: ATP 5 μM
T1 construct: purchased Invitrogen PV3146
Description: (§1) IC50 was determined by using ^33P isotope-labeled kinase activity assay (Reaction Biology Corp), to evaluate the inhibitory ability of the test compound against human FGFR1 and FGFR4.
(§2) Buffer conditions: 20 mM Hepes (pH 7.5), 10 mM MgCl2, 1 mM EGTA, 0.02% Brij35, 0.02 mg/mL BSA, 0.1 mM Na3VO4, 2 mM DTT, and 1% DMSO.
(§3) Test procedures: At room temperature, the compound of Formula (I) was dissolved in DMSO to prepare a 10 mM solution. The substrate was dissolved in a freshly prepared buffer, and added with the test kinase and well mixed. By using acoustic technology (Echo 550), the solution of the test compound in DMSO was added into the above well-mixed reaction solution, to allow a compound concentration in reaction solution to be 10 μM, 3.33 μM, 1.11 μM, 0.370 μM, 0.123 μM, 41.2 nM, 13.7 nM, 4.57 nM, 1.52 nM, and 0.508 nM, or to be 10 μM, 2.50 μM, 0.62 μM, 0.156 μM, 39.1 nM, 9.8 nM, 2.4 nM, 0.61 nM, 0.15 nM, and 0.038 nM. After 15 minutes of incubation, ^33P-ATP (having an activity of 0.01 μCi/μl, and corresponding concentrations were given in Table 3) was added to start the reaction. Information about FGFR1, FGFR4 and their substrate's supplier, catalog number and lot number, as well as their concentration in the reaction solution, was listed in Table 3. […]

human FGFR4 = molecular target: T2, human FGFR4 (Homo sapiens, UniProt P22455); test: 33P isotope-labeled kinase activity assay, wild type FGFR4; type: biochemical; details: ATP 100 μM
T2 construct: purchased Invitrogen P3054
Description: as §1, §2, §3

FGFR2 (N549H) = molecular target: T3, FGFR2 (N549H) (Homo sapiens, UniProt P21802, N549H); test: 33P isotope-labeled kinase activity assay, mutant FGFR2 (N549H); type: biochemical; details: ATP 50 μM
T3 construct: purchased Millipore 14-742
Description: (§4) IC50 was determined by using ^33P isotope-labeled kinase activity assay (Reaction Biology Corp), to evaluate the inhibitory ability of the test compound against mutant FGFR.
(§5) Test procedures: At room temperature, test compound was dissolved in DMSO to prepare a 10 mM solution. The substrate was dissolved in a freshly prepared buffer, to which the test kinase was added and well mixed. By using acoustic technology (Echo 550), the solution of the test compound in DMSO was added into the well-mixed reaction solution, to allow a compound concentration in reaction solution to be 10 μM, 3.33 μM, 1.11 μM, 0.370 μM, 0.123 μM, 41.2 nM, 13.7 nM, 4.57 nM, 1.52 nM, 0.508 nM, or to be 10 μM, 2.50 μM, 0.62 μM, 0.156 μM, 39.1 nM, 9.8 nM, 2.4 nM, 0.61 nM, 0.15 nM, 0.038 nM. After 15 minutes of incubation, ^33P-ATP (having an activity of 0.01 μCi/μl, and corresponding concentrations were given in Table 5) was added to start the reaction. […] After washing the filter paper with a 0.75% phosphoric acid solution repeatedly, the radioactivity of the phosphorylated substrate left on the filter paper was measured. The kinase activity data was expressed by comparing the kinase activity of the test compound with that of blank group (containing DMSO only), and IC50 was determined by curve fitting with Prism4 software (GraphPad).

FGFR1 (V561M) = molecular target: T4, FGFR1 (V561M) (Homo sapiens, UniProt P11362, V561M); test: 33P isotope-labeled kinase activity assay, mutant FGFR1 (V561M); type: biochemical; details: ATP 10 μM
T4 construct: purchased Signal Chem F04-13G
Description: as §4, §5

FGFR2 (E565G) = molecular target: T5, FGFR2 (E565G) (Homo sapiens, UniProt P21802, E565G); test: 33P isotope-labeled kinase activity assay, mutant FGFR2 (E565G); type: biochemical; details: ATP 10 μM
T5 construct: purchased Signal Chem F05-12CG
Description: as §4, §5

FGFR2 (V564F) = molecular target: T6, FGFR2 (V564F) (Homo sapiens, UniProt P21802, V564F); test: 33P isotope-labeled kinase activity assay, mutant FGFR2 (V564F); type: biochemical; details: ATP 20 μM
T6 construct: purchased SignalChem F05-12FG
Description: as §4, §5

FGFR3 (V555M) = molecular target: T7, FGFR3 (V555M) (Homo sapiens, UniProt P22607, V555M); test: 33P isotope-labeled kinase activity assay, mutant FGFR3 (V555M); type: biochemical; details: ATP 20 μM
T7 construct: purchased SignalChem F06-12GG
Description: as §4, §5

FGFR3 (K650M) = molecular target: T8, FGFR3 (K650M) (Homo sapiens, UniProt P22607, K650M); test: 33P isotope-labeled kinase activity assay, mutant FGFR3 (K650M); type: biochemical; details: ATP 2.5 μM
T8 construct: purchased Carna Biosciences Carna 08-199
Description: as §4, §5

FGFR4 (N535K) = molecular target: T9, FGFR4 (N535K) (Homo sapiens, UniProt P22455, N535K); test: 33P isotope-labeled kinase activity assay, mutant FGFR4 (N535K); type: biochemical; details: ATP 2.5 μM
T9 construct: purchased Carna Biosciences Carna 08-524
Description: as §4, §5

FGFR4 (V550M) = molecular target: T10, FGFR4 (V550M) (Homo sapiens, UniProt P22455, V550M); test: 33P isotope-labeled kinase activity assay, mutant FGFR4 (V550M); type: biochemical; details: ATP 2.5 μM
T10 construct: purchased Signal Chem F07-12DG
Description: as §4, §5

[2] = Pharmacokinetic investigation in dogs; type: in vivo; details: male, dog, plasma, beagle dogs; for AUC: read-out: Concentration integral AUC; for half-life: read-out: Half-life T1/2 (converted); for bioavailability: read-out: Bioavailability F
Source text: The experiments aimed to test the pharmacokinetics of the test compound in beagle dogs.
Two beagle dogs were selected as one group. The compound was formulated into a designated preparation. The vehicle for intravenous injection was a mixture of DMSO: polyethylene glycol […] (PEG400): saline=10:40:50 (volume ratio) or a mixture of 10% DMSO/10% solutol/80% water. The vehicle for oral administration was a mixture of 0.5% methylcellulose (MC)+0.2% Tween. Each animal was given the preparation intragastrically at a predetermined dosage.
Whole blood samples, each about 500 μL, were collected from the cephalic vein or saphenous vein at […], namely 5 minutes, 15 minutes, 30 minutes, 1 hour, 2 hours, 4 hours, 6 hours, 8 hours, 12 hours and 24 hours after the animals were administered.
The […] was put into a centrifuge tube containing anticoagulant, and centrifuged at 3000 g for 10 min at 4° C. The plasma supernatant was frozen quickly on dry ice, and then kept in a frige at −70±10° C. until LC-MS/MS analysis was performed.
The plasma concentration of the compound was processed using a non-compartmental model by WinNonlin™ Version 6.3.0 (Pharsight, Mountain View, Calif.) pharmacokinetic software. The peak concentration (Cmax), time of maximum plasma concentration (Tmax), and time of the last quantifiable concentration, were determined directly from the curve of plasma concentration−time.
The following pharmacokinetic parameters: half-life time of elimination phase (T½), the mean residence time of the drug in the body from time 0 to the end timepoint (MRT0-last), the mean residence time of the drug in the body from time 0 to infinite time (MRT0-inf), area under the plasma concentration-time curve from time 0 to the end timepoint (AUC0-last), area under plasma concentration-time curve from time 0 to infinite time (AUC0-inf), were calculated using the log-linear trapezoidal method.
For the individual plasma concentration below the detection line, when it appeared before Tmax, it was calculated as 0; when it appeared after Tmax, it was directly excluded. All parameters and ratios were reported in the form of three significant figures.
In these experiments, the pharmacokinetic parameters were calculated based on the theoretical blood collection time and theoretical administration concentration in the embodiments.

[3] = 1 mg/kg, intravenous administration (1 mpk)
[4] = 5 mg/kg, oral administration (5 mpk)

T2 sequence (P22455 22-802): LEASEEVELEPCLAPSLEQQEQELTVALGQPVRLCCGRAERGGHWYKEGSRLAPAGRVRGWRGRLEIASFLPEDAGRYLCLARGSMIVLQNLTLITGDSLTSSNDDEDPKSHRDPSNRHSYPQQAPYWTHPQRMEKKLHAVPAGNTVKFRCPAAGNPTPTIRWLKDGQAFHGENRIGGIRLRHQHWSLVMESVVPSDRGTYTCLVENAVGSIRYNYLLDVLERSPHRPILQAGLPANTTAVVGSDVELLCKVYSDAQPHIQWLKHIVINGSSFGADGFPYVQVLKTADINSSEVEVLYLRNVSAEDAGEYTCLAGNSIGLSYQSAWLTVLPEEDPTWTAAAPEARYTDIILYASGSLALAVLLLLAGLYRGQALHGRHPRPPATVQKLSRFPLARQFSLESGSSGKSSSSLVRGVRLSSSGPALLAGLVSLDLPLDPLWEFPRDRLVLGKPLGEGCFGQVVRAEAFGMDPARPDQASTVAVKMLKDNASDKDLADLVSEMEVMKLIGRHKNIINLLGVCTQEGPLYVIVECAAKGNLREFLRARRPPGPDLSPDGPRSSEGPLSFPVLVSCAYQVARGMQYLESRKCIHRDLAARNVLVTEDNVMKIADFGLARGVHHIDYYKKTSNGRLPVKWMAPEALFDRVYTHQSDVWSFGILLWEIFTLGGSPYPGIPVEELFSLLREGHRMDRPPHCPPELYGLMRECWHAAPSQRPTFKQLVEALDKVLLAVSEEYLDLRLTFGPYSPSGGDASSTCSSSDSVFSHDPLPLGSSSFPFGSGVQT
T6 sequence (P21802 22-821 V564F): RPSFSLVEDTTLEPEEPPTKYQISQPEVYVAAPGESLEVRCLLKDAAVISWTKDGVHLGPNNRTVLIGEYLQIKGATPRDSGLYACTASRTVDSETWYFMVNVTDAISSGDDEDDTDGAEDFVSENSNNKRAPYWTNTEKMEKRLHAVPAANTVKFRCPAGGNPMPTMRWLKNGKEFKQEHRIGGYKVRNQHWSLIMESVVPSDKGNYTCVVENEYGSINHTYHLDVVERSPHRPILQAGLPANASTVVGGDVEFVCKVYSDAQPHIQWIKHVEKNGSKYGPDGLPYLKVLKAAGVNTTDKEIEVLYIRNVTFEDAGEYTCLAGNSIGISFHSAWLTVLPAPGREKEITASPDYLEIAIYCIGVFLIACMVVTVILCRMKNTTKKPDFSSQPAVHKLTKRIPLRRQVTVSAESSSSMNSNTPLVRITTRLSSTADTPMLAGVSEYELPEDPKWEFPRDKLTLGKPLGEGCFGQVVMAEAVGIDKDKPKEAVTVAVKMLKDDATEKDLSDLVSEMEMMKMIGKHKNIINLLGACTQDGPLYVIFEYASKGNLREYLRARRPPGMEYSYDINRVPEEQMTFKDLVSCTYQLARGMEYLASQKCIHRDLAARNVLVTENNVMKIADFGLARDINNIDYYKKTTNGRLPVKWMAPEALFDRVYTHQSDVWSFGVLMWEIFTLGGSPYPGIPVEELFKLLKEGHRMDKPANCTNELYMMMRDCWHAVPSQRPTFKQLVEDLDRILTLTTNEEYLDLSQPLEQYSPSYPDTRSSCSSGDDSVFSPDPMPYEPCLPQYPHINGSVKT
T8 sequence (P22607 23-806 K650M): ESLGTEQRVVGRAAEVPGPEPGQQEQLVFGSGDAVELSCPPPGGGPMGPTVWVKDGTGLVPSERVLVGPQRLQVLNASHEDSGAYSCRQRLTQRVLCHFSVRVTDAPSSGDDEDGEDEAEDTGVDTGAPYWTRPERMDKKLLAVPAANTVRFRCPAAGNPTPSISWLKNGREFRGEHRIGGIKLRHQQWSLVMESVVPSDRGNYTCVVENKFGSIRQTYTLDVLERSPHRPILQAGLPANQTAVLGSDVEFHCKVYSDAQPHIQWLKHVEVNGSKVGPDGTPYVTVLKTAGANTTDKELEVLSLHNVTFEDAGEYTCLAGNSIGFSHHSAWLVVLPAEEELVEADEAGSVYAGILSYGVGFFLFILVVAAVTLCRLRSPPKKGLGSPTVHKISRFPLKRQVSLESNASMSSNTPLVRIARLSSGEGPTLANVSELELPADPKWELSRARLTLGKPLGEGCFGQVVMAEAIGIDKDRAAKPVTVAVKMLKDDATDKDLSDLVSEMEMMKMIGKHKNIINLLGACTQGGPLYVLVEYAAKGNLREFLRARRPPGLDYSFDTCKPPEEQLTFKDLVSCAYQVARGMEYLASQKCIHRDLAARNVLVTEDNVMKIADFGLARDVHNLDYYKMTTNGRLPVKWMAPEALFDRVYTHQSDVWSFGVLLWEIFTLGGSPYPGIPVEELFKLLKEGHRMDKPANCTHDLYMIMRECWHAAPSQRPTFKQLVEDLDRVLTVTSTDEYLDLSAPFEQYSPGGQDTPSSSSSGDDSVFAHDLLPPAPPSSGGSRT
T1 sequence (P11362 22-822): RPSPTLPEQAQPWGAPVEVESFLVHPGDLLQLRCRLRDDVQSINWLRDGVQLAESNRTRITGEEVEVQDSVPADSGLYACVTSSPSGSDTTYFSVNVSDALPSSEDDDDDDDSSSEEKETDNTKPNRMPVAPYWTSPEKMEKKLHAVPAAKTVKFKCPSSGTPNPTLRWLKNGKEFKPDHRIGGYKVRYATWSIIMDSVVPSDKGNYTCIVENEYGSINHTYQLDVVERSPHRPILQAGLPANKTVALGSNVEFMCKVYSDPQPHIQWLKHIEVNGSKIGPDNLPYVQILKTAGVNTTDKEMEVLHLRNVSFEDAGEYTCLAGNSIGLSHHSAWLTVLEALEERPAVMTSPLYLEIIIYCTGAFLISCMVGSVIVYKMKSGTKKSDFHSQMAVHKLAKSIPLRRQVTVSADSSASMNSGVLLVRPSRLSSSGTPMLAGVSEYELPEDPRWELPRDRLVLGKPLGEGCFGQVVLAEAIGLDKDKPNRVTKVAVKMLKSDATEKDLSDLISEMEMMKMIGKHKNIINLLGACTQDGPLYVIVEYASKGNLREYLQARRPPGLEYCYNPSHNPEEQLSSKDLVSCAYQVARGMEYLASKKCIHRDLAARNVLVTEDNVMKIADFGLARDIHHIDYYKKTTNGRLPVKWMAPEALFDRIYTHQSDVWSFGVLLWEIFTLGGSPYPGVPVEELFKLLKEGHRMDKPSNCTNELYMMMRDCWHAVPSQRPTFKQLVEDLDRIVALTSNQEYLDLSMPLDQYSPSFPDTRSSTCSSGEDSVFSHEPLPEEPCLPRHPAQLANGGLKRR
T10 sequence (P22455 22-802 V550M): as the sequence (P22455 22-802) above, with V529M counted along it
T9 sequence (P22455 22-802 N535K): as the sequence (P22455 22-802) above, with N514K counted along it
T5 sequence (P21802 22-821 E565G): as the sequence (P21802 22-821 V564F) above, with F543V, E544G counted along it
T3 sequence (P21802 22-821 N549H): as the sequence (P21802 22-821 V564F) above, with N528H, F543V counted along it
T4 sequence (P11362 22-822 V561M): as the sequence (P11362 22-822) above, with V540M counted along it
T7 sequence (P22607 23-806 V555M): as the sequence (P22607 23-806 K650M) above, with V533M, M628K counted along it

weight gain caused by moisture-adsorption ΔW [1] [%]	IC50 (human FGFR1) [nM]	IC50 (human FGFR4) [nM]	IC50 (FGFR2 (N549H)) [nM]	IC50 (FGFR1 (V561M)) [nM]	IC50 (FGFR2 (E565G)) [nM]	IC50 (FGFR2 (V564F)) [nM]	IC50 (FGFR3 (V555M)) [nM]	IC50 (FGFR3 (K650M)) [nM]	IC50 (FGFR4 (N535K)) [nM]	IC50 (FGFR4 (V550M)) [nM]	AUC [2, 3] [µM·h]	AUC [2, 4] [µM·h]	Structure (SMILES)	hygroscopicity classification [1]	clearance [2, 3] [mL/min/kg]	half-life [2, 3] [h]	bioavailability [2, 4] [%]
0.1928	–	–	–	–	–	–	–	–	–	–	–	–	C=CC(=O)N1CC[C@H](c2cc(-c3cc4cc(C)cc(OC)c4s3)c3c(N)ncnn23)C1	no or almost no hygroscopicity (weight gain caused by moisture is less than 0.2%.)	–	–	–
–	0.2	0.2	0.5	38	0.1	33	7.3	0.2	34	5.6	4.13	18.2	C=CC(=O)N1CC[C@H](c2cc(-c3cc4cc(C)cc(OC)c4s3)c3c(N)ncnn23)C1 [compound represented by Formula (I)]	–	9.4	3	88
–	–	–	–	–	–	–	–	–	–	–	–	–	C=CC(=O)N1CC[C@H](n2nc(C#Cc3cc(OC)cc(OC)c3)c3c(N)ncnc32)C1 [reference compound 1, reference compound]	–	17	0.8	41
